{
  "source": "paper PMC7108740",
  "about": "“Exploring the molecular structures that confer ligand selectivity for galanin type II and III receptors” (PLoS ONE, 2020)",
  "key": {"[1]": {"molecular_target": "T1, GALR3 single mutant C^272L (Homo sapiens, UniProt O60755, C272L)", "T1 construct": "expressed in transfected cells; host or cells: HEK293 cells stably expressing Gqi", "T1 sequence (O60755 whole entry C272L, the tested form may be a part)": "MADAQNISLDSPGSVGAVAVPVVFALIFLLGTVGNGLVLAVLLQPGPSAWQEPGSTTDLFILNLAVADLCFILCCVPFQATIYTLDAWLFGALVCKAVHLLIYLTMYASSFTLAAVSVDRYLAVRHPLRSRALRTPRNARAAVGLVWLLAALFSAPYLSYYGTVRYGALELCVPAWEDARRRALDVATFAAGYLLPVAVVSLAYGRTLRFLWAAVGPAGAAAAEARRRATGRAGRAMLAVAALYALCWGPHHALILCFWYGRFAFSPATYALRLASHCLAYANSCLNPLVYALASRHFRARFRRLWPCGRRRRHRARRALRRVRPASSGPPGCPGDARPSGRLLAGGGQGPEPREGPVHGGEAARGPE", "assay": "SRE-luc luciferase assay, GALR3 C272L", "format": "cell-based", "conditions": "GALR3 C^272L; SRE-luc in HEK293 Gqi cells, ligand 6 h; mean ± S.E.; SEM", "excerpt": "For domain swapping between GALR2 and GALR3, individual cDNA fragments of interest were amplified by polymerase chain reaction (PCR) with Pfu polymerase (ELPIS Biotech, Daejeon, Korea) and two specific primers, one corresponding to the 5' or 3' end of the GALR2 or GALR3 cDNA and the other to the region of overlap between the two receptors. The two resulting fragments, one from GALR2 and the other from GALR3, were subjected to a second round of PCR to generate the chimeric cDNAs. To construct single, double-, triple-, pentuple-, hextuple-, and septuple-mutant receptors, amino acids of GALR3 were substituted for the amino acids at the corresponding positions in GALR2 using PCR-based site-directed mutagenesis. All of the chimeric constructs were cloned into the pcDNA3 expression vector at HindⅢ and XbaⅠ sites. The DNA sequences of the chimeras were verified by automatic sequencing. […] The luciferase activity in 50 μl cell extract was determined using a luciferase assay system according to the standard protocol for the Synergy 2 Multi-Mode Microplate Reader (BioTek, Winooski, VT, USA). […] The concentrations of agonists that induced half-maximal stimulation (EC50) were calculated using the GraphPad PRISM5 software (GraphPad software, Inc., San Diego, CA). […]"}, "[2]": {"molecular_target": "T2, GALR3 (Homo sapiens, UniProt O60755)", "T2 sequence (O60755 1-368)": "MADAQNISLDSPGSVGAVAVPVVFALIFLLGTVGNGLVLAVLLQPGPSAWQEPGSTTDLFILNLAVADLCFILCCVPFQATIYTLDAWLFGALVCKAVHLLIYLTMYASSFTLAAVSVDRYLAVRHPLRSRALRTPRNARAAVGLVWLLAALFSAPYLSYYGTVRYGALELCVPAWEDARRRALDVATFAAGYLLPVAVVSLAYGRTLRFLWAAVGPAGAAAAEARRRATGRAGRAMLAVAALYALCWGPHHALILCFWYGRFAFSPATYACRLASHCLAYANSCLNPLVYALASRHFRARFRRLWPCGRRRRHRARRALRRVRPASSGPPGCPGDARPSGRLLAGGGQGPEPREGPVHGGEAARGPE", "assay": "cAMP assay (inhibition of forskolin-induced cAMP), WT GALR3", "format": "cell-based", "parameters": "expressed in transfected cells; host or cells: HEK293 cells stably expressing pGlosensor-22F cAMP plasmid", "conditions": "Glosensor-22F cAMP HEK293 cells, agonist 10 min then forskolin 10 μM, mean ± SE, SEM", "description": "SPX-induced or Qu-SPX-induced cyclic adenosine monophosphate (cAMP) mobilization was measured in HEK293 cells stably expressing the pGlosensor^TM-22F cAMP plasmid (Promega Corp., Madison, WI, USA). The Glosensor-22F cAMP HEK293 cells were seeded on 96-well plates at a density of 2.0 × 10^4 cells/well 24 h before transfection. A mixture including 100 ng expression plasmid and lipofectamine 2000 reagent in diluted Opti-MEM (Gibco) was incubated at room temperature for 20 min. The mixtures were added into each well according to the manufacturer's instructions (Invitrogen, CA, USA). After 48 h, Glosensor cAMP substrates were added to the transfected cells in CO2-independent media. After 2 h, the cells were incubated with a range of agonist concentrations or vehicle for 10 min and then exposed to foskolin (10 μM). Luminescence was measured for up to 30 min using a Microplate Reader (BioTek, Winooski, VT, USA).\nData analysis was performed by non-linear regression with a sigmoidal dose-response curve. The concentrations of agonists that induced half-maximal stimulation (EC50) were calculated using the GraphPad PRISM5 software (GraphPad software, Inc., San Diego, CA). All data are presented as the mean ± standard error (SE) of at least three independent experiments. […]"}},
  "data": [
    {"compound": "CSCC[C@H](NC(=O)[C@H](C)NC(=O)[C@H](CCC(N)=O)NC(=O)[C@@H]1CCCN1C(=O)[C@@H](NC(=O)[C@H](Cc1c[nH]c2ccccc12)NC(=O)[C@@H](N)CC(N)=O)[C@@H](C)O)C(=O)N[C@@H](CC(C)C)C(=O)N[C@@H](Cc1ccc(O)cc1)C(=O)N[C@@H](CC(C)C)C(=O)N[C@@H](CCCCN)C(=O)NCC(=O)N[C@@H](C)C(=O)N[C@@H](CCC(N)=O)C(N)=O", "note": "[SPX, reference compound]", "values": [
      {"measurement": "EC50", "setting": "[1]", "value": "28.8 ± 6.96", "unit": "nM"},
      {"measurement": "EC50", "setting": "[2]", "value": "117 ± 51.4", "unit": "nM"}
    ]}
  ]
}
